Test system: dairy cows
Test: In vivo protection and transfer of t10c12-CLA to milk, milk fat content
Conditions: 7 g per cow daily; FIG. 9
Description: Eight dairy cows in mid-lactation (100 to 220 days in milk, 562 to 712 kg live weight, minimum daily production of 20 to 25 kg milk) were used in a sequential set-up to test the in vivo protection of fatty acids and transfer to the milk. Two supplements were tested: First, a protected fatty acid emulsion, prepared according to Example 1, was administered (n=4). This product consisted of a protein extract from potato tuber peels, which was further used to emulsify a commercially available triacylglyceride mixture of cis-9, trans-11 and trans-10, cis-12 conjugated linoleic acid (t10c12-CLA) (TONALIN® TG80, BASF-AG, Ludwigshafen, Germany) and protected against rumen degradation through the creation of protein-phenol complexes by addition of 4-methylcatechol. The degree of rumen bypass of t10c12 CLA was assessed in vitro as described in Example 1 before the start of the in vivo trial. […]
The experimental period consisted of six weeks. […] Milk fat content was determined by Fourier Transform Infrared analysis (FTIR Delta Instruments, Drachten, The Netherlands) and fatty acids determined as described by Jorjong et al.^(19) Milk fat is presented as percentage of the total mass of milk produced per day and t10c12-CLA as g per 100 g of fatty acids detected.

transfer of dietary t10c12-CLA to the milk: up to 5%
SMILES: CCCCC/C=C\C=C\CCCCCCCCC(=O)O [t10c12-CLA, trans-10, cis-12 conjugated linoleic acid]

Reference: patent publication US20160316791A1, “METHOD TO PROTECT LIPOPHILIC NUTRIENTS AGAINST RUMINAL DEGRADATION” (UNIVERSITEIT GENT, priority 2013, published 2016)
